PMC5703966, “Systemic clearance and brain distribution of carbazole-based cyanine compounds as Alzheimer’s disease drug candidates” (Scientific Reports, 2017)

What was measured:
[1] = Liver microsomes binding by RED device; type: in vitro ADME
Procedure: Nonspecific binding in plasma (f u, plasma), microsomes (f u, mic) and hepatocyte (f u, hep) were determined using the method seen in supplemental information (Supplemental Methods). […]
Plasma, liver microsomes and hepatocyte binding by RED device […]
The stability of the compounds in plasma, liver microsomes and hepatocyte were studied to ensure […]
the reliability of the binding data. Hepatocyte was deactivated by leaving them on a bench for 2 days […]
and going through a freeze thaw cycle thereafter. […]
denatured. Testosterone was used as a control for CYP3A to ensure no turnover, so that the enzymes […]
were inactivated. All validation compounds were incubated at 37 °C over 4 h, and in triplicate. […]
For liver mi crosomes without cofactors and […]
mg/mL protein concentration, same as the assay condition) or deactivated hepatocytes (0.5 million […]
cells/mL, same as the assay condition) were added to the donor wells. 10 mM DMSO solutions of SLM […]
and SLOH were diluted to 50 µM (10% DMSO). 490 µL aliquots microsomes (0.51 mg/mL) and […]
hepatocytes (0.51 million cells/mL) were dispensed into a 1.5 mL tube, and then pre-warmed at 37 °C […]
in a shaking water bath. The assay was started by addition of 10 µL aliquots of compound solutions to […]
the corresponding biologica l matrices (final DMSO incubation concentration 0.2%, microsomes […]
concentration 0.50 mg/mL, hepatocytes concentration 0.5 million cells/mL). At 0, 15, 30, 60, 120, 180 […]
MS/MS. Natural logarithm of peak area ratios (compound peak area normalized by IS peak area) were plotted against time and half-life calculated. […]
placed into the sample chamber (indicated by the red ring) with 400 µL of PBS into the adjacent chamber.
The plate was sealed with a self-adhesive lid and incubated at 37 °C on an orbital shaker (1.5 g approx.) for 4 h. Aliquots (100 µL) were removed from each side of the insert, and analyzed after protein precipitation using 4 folds acetonitrile (ACN) containing berberine chloride as internal standard (IS) by LC-MS/MS (Analytical me thod seen below). The experimental procedure outlined in the Thermo Scientific RED device systems brochure was adopted in the present study . […]
For control experiments, NADPH, UDPGA and/or liver microsomes were omitted from these incubations. For the purposes of metabolite identification studies, the concentration of SLOH and […]

OATP1B3 = target: T1, OATP1B3 (Homo sapiens, UniProt Q9NPD5); assay: OATP substrate identification, uptake in stably transfected HEK293 cells; conditions: 1 and 10 μM, 10 mins
T1 sequence (Q9NPD5 1-702): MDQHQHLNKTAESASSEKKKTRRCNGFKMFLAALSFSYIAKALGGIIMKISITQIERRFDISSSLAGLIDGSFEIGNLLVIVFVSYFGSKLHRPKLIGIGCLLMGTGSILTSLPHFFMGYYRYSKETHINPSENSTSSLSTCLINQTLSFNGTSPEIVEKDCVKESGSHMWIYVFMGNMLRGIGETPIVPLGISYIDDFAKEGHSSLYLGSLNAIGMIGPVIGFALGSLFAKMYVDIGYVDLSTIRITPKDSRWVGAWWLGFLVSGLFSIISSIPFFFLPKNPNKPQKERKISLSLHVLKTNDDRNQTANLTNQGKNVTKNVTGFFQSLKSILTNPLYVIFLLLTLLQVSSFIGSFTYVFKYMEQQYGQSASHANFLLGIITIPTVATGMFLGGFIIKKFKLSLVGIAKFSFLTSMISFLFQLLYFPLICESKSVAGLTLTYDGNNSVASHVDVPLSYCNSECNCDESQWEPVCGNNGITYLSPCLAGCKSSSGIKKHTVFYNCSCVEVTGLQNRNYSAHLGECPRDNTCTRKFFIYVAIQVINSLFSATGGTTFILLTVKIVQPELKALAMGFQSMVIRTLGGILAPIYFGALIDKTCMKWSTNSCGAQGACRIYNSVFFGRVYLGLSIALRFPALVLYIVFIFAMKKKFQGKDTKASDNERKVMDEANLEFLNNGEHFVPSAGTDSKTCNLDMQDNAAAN
Procedure: (§1) Daily changes of medium were performed and on the second day after seeding using medium containing 10 mM sodium butyrate.
(§2) Stably transfected HEK cells and control vector-transfected HEK293 cells were first washed (3 × 1 mL) with prewarmed HBSS (pH 7.4) and then were incubated with 250 μL of HBSS containing compounds at concentrations of 1 and 10 μM. Cells were incubated for 10 mins at 37 °C for all experiments. After incubation, uptake was stopped by aspirating the incubation solution and washing each well 3 times with 200 μL of ice-old HBSS. The cells were lysed in 150 μL of 1 M NaOH for 30 mins, and then neutralized by adding equal volumes of 1 M HCl.
(§3) The following equations (3 and 4) were used to calculate the uptake rates (U, pmol/mg/min) and the OATP1B1, OATP1B3, OATP2B1 and OATP1A2 uptake ratio (UR):3 U=Clysate/P×T 4 UR=UOATP1B1/1B3/2B1/1A2/UHEK293−MOCK where C lysate is the compound concentration in cell lysates. P is the protein concentration in cell lysates. T is the incubation time. U OATP1B1/1B3/2B1/1A2 is the uptake rate obtained in HEK293 stably transfected OATP1B1, OATP1B3, OATP2B1 or OATP1A2 transportation. U HEK293-MOCK is the uptake rate obtained in control vector-transfected HEK293 transportation.

OATP2B1 = target: T2, OATP2B1 (Homo sapiens, UniProt O94956); assay: as above; conditions: for uptake in cells transfected with OATP2B1 versus WT cells: 1 and 10 μM, 10 mins
T2 sequence (O94956 1-709): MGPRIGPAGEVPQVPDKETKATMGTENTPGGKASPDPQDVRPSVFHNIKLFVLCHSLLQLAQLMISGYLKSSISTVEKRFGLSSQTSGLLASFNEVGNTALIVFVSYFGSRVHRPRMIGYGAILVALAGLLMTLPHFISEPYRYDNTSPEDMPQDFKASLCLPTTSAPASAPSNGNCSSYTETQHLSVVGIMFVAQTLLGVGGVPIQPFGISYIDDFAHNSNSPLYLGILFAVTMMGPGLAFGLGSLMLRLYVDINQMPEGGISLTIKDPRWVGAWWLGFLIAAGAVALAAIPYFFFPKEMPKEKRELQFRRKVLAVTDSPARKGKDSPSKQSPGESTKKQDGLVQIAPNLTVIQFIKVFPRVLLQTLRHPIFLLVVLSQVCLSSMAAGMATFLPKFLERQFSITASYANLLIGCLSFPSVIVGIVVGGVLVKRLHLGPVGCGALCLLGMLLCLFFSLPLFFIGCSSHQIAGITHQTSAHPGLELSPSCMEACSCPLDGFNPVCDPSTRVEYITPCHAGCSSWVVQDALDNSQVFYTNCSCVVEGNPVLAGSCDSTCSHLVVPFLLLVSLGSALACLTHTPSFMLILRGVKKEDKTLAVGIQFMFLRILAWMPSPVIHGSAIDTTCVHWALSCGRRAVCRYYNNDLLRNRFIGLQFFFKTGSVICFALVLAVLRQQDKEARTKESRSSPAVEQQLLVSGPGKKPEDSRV
Procedure: as §1, §2, §3

[2] = human liver microsomes 0.5 mg/mL
[3] = mouse liver microsomes 0.5 mg/mL

| f u,mic % [1, 2] [%] | f u,mic % [1, 3] | uptake by OATP1B3 transfected HEK293 versus WT cells (OATP1B3) | OATP2B1 substrate identification (OATP2B1) | uptake in cells transfected with OATP2B1 versus WT cells (OATP2B1) | SMILES |
| --- | --- | --- | --- | --- | --- |
| 6.60 ± 1.60 | 17.0 ± 2.40^$ % | no significant differences | substrates | doubled | COCCOCCn1c2ccccc2c2cc(/C=C/c3cc[n+](CCO)c4ccccc34)ccc21 [SLOH, (E)-1-(2-hydroxyethyl)-4-(2-(9-(2-(2-metho-xyethoxy)-ethyl)-9H-carbazol-3-yl)vinyl) quinolin-1-ium chloride] |
| 7.30 ± 0.150 | 11.0 ± 1.06^$ % | no significant differences | substrates | doubled | COCCOCCn1c2ccccc2c2cc(/C=C/c3cc[n+](C)c4ccccc34)ccc21.[I-] [SLM, (E)-4-(2-(9-(2-(2-methoxyethoxy)ethyl)-9H-carbazol-3-yl)-vinyl)-1-methyl-quinolin-1-iumiodide] |
